Values after ≈ are worked out from the molar mass of the structure shown.
Key:
[1] = system: Clostridium perfringens; assay: Antimicrobial activity against Clostridium perfringens after 48 hrs by agar dilution method; type: functional
[2] = system: Clostridioides difficile; assay: Antimicrobial activity against Clostridium difficile after 48 hrs by agar dilution method; type: functional

`CN[C@H](CC(C)C)C(=O)N[C@H]1C(=O)N[C@@H](CC(N)=O)C(=O)N[C@H]2C(=O)N[C@H]3C(=O)N[C@H](C(=O)N[C@H](C(=O)O)c4cc(O)cc(O)c4-c4cc3ccc4O)[C@H](O)c3ccc(c(Cl)c3)Oc3cc2cc(c3O[C@@H]2O[C@H](CO)[C@@H](O)[C@H](O)[C@H]2O[C@H]2C[C@](C)(N)[C@H](O)[C@H](C)O2)Oc2ccc(cc2Cl)[C@H]1O` [VANCOMYCIN] showed an MIC50 [1] of 0.5 mg/L (≈ 0.345 µM), an MIC90 [1] of 0.5 mg/L (≈ 0.345 µM) and an MIC50 [2] of 0.5 mg/L (≈ 0.345 µM). For the same compound, the MIC90 [2] was 2 mg/L (≈ 1.38 µM).

Reference: ChEMBL document CHEMBL1671716, “Antimicrobial susceptibility patterns for recent clinical isolates of anaerobic bacteria in South Korea” (2010)
